Results reported in publication PMC9204419, “A Toolbox for the Generation of Chemical Probes for Baculovirus IAP Repeat Containing Proteins” (Frontiers in Cell and Developmental Biology, 2022).
Entries after “also recorded” stand apart in the source; their conditions may differ. Where two headings read alike, the source gives them in different places.

Columns and labels:
[1] = biological target: BIRC3 BIR3 (Homo sapiens, UniProt Q13489); assay: NanoBRET cellular target engagement, single domain BIRC3 BIR3
Sequence of BIRC3 BIR3 (Q13489 236-360): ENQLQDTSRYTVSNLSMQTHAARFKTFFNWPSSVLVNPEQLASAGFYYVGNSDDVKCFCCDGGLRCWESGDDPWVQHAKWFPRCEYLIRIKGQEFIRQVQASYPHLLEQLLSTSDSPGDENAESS
Experimental: (§1) In brief: Constructs contained the cDNA of full-length or single domains cloned in frame with an N-terminal NanoLuc-fusion as specified in Supplementary Table S2. Plasmids were transfected into HEK293T cells using FuGENE HD (Promega, E2312) and proteins were allowed to express for 20 h. […] The corresponding transfected cells were added and reseeded at a density of 2.5^5 cells/mL after trypsinization and resuspending in Opti-MEM without phenol red (Life Technologies). […] Competitive displacement data were then graphed using GraphPad Prism 9.3 software using a normalized 3-parameter curve fit with the following equation: Y = 100/(1 + 10^(X-LogIC50)).

[2] = biological target: T1, BIRC2-BIR3 domain (Homo sapiens, UniProt Q13490); assay: Differential scanning fluorimetry (DSF); details: for ΔTm at 40 µM: read-out: DSF Assay ΔTm; for ΔTm [°C] (Supplementary Table S1): technical replicate; for Mean, ΔTm [°C] (Supplementary Table S1): mean of n=3, difference to DMSO control
T1 sequence (Q13490 260-352): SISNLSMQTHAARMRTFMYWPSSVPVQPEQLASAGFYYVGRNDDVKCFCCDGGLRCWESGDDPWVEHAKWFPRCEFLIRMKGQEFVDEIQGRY
Experimental: Purified proteins were buffered in DSF buffer (25 mM HEPES pH 7.5, 500 mM NaCl) and were assayed in a 384-well plate (Thermo, #BC3384) with a final protein concentration of 20 μM in 10 μL final assay volume. Inhibitors were added in excess to a final concentration of 40 μM, using an ECHO 550 acoustic dispenser (Labcyte). As a fluorescent probe, SYPRO-Orange (Molecular Probes) was used at 5x final concentration. […] Data was analyzed using Boltzmann-equation in the Protein Thermal Shift software (Applied Biosystems). Samples were measured in technical triplicates.
The assay was run in the presence of DMSO to exclude DMSO influences towards melting temperature differences when testing small molecules (Figures 2C,D).

[3] = biological target: T2, BIRC7 BIR (Homo sapiens, UniProt Q96CA5); assay: NanoBRET cellular target engagement, single domain BIRC7 BIR
T2 sequence (Q96CA5 70-176): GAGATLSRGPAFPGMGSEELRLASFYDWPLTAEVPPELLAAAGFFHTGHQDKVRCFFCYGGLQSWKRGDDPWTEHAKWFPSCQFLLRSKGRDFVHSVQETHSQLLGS
Experimental: as §1

[4] = biological target: T3, BIRC8 BIR (Homo sapiens, UniProt Q96P09); assay: NanoBRET cellular target engagement, single domain BIRC8 BIR
T3 sequence (Q96P09 1-90): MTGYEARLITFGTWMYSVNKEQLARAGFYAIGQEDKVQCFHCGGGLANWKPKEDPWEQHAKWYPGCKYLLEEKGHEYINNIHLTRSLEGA
Experimental: as §1

[5] = biological target: T4, BIRC1 BIR[2] (Homo sapiens, UniProt Q13075); assay: NanoBRET cellular target engagement, single domain BIRC1 BIR[2]
T4 sequence (Q13075 139-251): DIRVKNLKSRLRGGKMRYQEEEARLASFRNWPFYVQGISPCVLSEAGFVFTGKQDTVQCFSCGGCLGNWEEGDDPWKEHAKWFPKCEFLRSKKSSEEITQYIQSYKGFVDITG
Experimental: as §1

[6] = biological target: T5, BIRC8 (Homo sapiens, UniProt Q96P09); assay: NanoBRET cellular target engagement, full-length BIRC8
T5 sequence (Q96P09 1-236): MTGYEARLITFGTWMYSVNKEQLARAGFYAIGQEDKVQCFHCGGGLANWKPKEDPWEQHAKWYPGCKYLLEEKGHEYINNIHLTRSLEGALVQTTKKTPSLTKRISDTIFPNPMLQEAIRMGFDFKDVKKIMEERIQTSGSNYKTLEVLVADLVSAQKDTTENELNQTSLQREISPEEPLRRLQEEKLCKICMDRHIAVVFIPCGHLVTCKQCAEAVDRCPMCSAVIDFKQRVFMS
Experimental: as §1

[7] = biological target: BIRC4 (Homo sapiens, UniProt P98170); assay: NanoBRET cellular target engagement, full-length BIRC4
Sequence of BIRC4 (P98170 whole entry): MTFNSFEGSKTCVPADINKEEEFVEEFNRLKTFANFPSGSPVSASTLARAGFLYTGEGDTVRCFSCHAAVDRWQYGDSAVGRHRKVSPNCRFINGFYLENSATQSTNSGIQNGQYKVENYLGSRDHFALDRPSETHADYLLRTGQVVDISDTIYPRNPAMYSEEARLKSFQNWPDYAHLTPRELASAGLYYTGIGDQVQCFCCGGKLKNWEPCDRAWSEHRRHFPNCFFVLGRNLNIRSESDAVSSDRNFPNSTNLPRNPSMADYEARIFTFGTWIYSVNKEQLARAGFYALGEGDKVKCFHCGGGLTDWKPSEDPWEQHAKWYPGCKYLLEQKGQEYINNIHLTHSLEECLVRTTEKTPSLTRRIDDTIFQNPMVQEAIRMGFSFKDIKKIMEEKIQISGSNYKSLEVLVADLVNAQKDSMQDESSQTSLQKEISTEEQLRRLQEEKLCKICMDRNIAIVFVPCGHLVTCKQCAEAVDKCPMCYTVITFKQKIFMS
Experimental: as §1

[8] = biological target: BIRC3 (Homo sapiens, UniProt Q13489); assay: NanoBRET cellular target engagement, full-length BIRC3
Sequence of BIRC3 (Q13489 whole entry): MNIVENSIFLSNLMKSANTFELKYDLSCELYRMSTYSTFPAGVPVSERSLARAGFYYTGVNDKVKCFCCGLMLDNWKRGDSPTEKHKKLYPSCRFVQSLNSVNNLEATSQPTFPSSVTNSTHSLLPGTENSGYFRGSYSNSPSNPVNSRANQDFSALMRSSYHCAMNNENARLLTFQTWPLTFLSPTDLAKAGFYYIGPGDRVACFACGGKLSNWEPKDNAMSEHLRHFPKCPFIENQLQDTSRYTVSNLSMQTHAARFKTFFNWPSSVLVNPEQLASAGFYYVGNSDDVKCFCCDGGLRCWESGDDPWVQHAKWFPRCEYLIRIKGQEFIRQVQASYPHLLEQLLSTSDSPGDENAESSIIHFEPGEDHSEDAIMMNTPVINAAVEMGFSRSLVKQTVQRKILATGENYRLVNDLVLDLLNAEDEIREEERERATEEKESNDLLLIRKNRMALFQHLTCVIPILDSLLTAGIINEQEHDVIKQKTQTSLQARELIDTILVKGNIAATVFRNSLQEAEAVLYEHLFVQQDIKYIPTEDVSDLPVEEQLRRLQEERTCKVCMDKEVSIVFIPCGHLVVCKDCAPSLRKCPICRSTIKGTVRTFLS
Experimental: as §1

[9] = biological target: T6, BIRC7 (Homo sapiens, UniProt Q96CA5); assay: NanoBRET cellular target engagement, full-length BIRC7
T6 sequence (Q96CA5 1-298): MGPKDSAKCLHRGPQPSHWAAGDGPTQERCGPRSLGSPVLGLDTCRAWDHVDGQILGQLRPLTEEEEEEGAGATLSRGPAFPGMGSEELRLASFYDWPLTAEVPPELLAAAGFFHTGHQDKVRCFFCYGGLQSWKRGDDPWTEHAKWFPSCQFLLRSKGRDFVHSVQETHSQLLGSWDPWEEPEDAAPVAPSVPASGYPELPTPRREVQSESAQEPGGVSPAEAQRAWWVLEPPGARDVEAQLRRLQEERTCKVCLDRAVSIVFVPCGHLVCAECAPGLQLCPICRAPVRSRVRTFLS
Experimental: as §1

[10] = biological target: BIRC3 BIR2 (Homo sapiens, UniProt Q13489); assay: NanoBRET cellular target engagement, single domain BIRC3 BIR2
Sequence of BIRC3 BIR2 (Q13489 147-253): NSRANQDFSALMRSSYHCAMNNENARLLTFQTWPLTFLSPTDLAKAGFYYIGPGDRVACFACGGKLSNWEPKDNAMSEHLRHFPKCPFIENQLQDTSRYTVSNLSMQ
Experimental: as §1

[11] = biological target: BIRC2 BIR2 (Homo sapiens, UniProt Q13490); assay: NanoBRET cellular target engagement, single domain BIRC2 BIR2
Sequence of BIRC2 BIR2 (Q13490 165-267): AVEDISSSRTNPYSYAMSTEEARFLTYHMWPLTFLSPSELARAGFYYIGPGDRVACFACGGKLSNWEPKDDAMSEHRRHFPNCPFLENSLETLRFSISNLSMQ
Experimental: as §1

[12] = biological target: BIRC2 (Homo sapiens, UniProt Q13490); assay: NanoBRET cellular target engagement, full-length BIRC2
Sequence of BIRC2 (Q13490 whole entry, the tested form may be a part): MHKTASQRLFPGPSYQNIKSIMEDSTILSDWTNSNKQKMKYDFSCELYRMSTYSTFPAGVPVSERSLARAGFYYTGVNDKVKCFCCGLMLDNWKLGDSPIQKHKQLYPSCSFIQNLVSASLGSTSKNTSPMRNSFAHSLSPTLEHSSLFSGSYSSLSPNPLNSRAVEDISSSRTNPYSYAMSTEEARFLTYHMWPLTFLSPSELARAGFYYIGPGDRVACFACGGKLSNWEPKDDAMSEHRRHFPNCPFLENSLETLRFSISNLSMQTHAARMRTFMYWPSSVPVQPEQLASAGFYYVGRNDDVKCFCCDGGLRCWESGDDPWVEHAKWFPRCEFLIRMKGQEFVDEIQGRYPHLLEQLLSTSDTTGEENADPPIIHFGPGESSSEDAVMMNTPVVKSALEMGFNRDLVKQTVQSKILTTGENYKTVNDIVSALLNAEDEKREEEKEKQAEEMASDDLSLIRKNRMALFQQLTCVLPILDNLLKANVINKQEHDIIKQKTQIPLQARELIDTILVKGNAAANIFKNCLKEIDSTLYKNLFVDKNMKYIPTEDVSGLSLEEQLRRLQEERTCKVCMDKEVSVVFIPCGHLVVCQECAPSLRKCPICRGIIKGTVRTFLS
Experimental: as §1

[13] = biological target: BIRC2 BIR3 (Homo sapiens, UniProt Q13490); assay: NanoBRET cellular target engagement, single domain BIRC2 BIR3
Sequence of BIRC2 BIR3 (Q13490 251-372): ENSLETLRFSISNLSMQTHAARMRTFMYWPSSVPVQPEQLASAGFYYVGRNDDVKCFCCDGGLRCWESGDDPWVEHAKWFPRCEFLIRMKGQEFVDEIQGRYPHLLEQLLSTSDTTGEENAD
Experimental: as §1

[14] = biological target: T1, BIRC2-BIR3 domain; assay: Isothermal titration calorimetry (ITC); type: binding; parameters: BIRC2-BIR3 domain (260–352) was expressed; His6 (N, cleaved yes); GST (N, cleaved yes); made in house; host or cells: E. coli
Experimental: For this protocol, the chamber was pre-equilibrated with the test compound, and the BIRC2-BIR3 domain was titrated in while continuously measuring the rate of exothermic heat evolution. The heat of binding was integrated, corrected, and fitted to an independent single-binding site model based on the manufacturer’s instructions, from which thermodynamic parameters (ΔH and TΔS), equilibrium association and dissociation constants (K A and K D, respectively), and stoichiometry (n) were calculated.

[15] = biological target: T1, BIRC2-BIR3 domain; assay: Fluorescence polarization (FP) competition assay with fluorescent SMAC probe; type: binding; parameters: BIRC2-BIR3 domain (260–352) was expressed; His6 (N, cleaved yes); GST (N, cleaved yes); made in house; host or cells: E. coli; details: for Ki: read-out: FP Assay K I Values
Experimental: Resulting data was plotted using GraphPad Prism 9.3 software and analyzed using a nonlinear fit to calculate the probe IC50. […] Compounds were titrated from 20 μM to 20 nM using an ECHO 550 acoustic dispenser (Labcyte) incubated for 1 h at room temperature and subsequent read out.
The assay is based on the displacement of a fluorescent SMAC mimetic from the binding site.

[16] = 25°C, duplicates, mean ± SD, read-out: K D Measured in ITC

Compound	EC50 [1]	ΔTm [°C] (Supplementary Table S1) ([2]; first column)	ΔTm [°C] (Supplementary Table S1) ([2]; second column)	EC50 [3]	EC50 [4]	EC50 [5]	EC50 [6]	EC50 [7]	EC50 [8]	EC50 [9]	EC50 [10]	also measured
CN[C@@H](C)C(=O)N[C@H]1CN(C(=O)CC(C)C)CC[C@H]2CC[C@@H](C(=O)NC(c3ccccc3)c3ccccc3)N2C1=O [AT406]	0.0052 ± 0.0012 µM	11.8 °C	11.8 °C	0.018 ± 0.0045 µM	0.0696 ± 0.0003 µM	0.467 ± 0.021 µM	0.0693 ± 0.0211 µM	0.0285 ± 0.0052 µM	0.062 ± 0.0085 µM	0.0251 ± 0.0052 µM	8.135 ± 0.0523 µM	ΔTm at 40 µM [2]: 11.6 ± 0.2 °C; ΔTm [°C] (Supplementary Table S1) ([2]; third column): 11.4 °C
CN[C@@H](C)C(=O)N[C@H](C(=O)N1CCC[C@H]1C(=O)Nc1snnc1-c1ccccc1)C1CCCCC1 [GDC-0152]	–	–	–	0.0284 ± 0.0027 µM	0.146 ± 0.0038 µM	15.2 ± 1.23 µM	0.134 ± 0.0084 µM	0.0153 ± 0.005 µM	–	0.0355 ± 0.0094 µM	–	–
CC[C@H](NC(=O)[C@H](C)NC)C(=O)N1C[C@@H](O)C[C@H]1Cc1c(-c2[nH]c3cc(F)ccc3c2C[C@@H]2C[C@H](O)CN2C(=O)[C@H](CC)NC(=O)[C@H](C)NC)[nH]c2cc(F)ccc12 [Birinapant]	0.9 µM	–	–	–	3.5 ± 0.1 µM	18.3 ± 1.1 µM	2.2 ± 1.1 µM	–	0.8 ± 0.4 µM	–	17.4 ± 1.7 µM	–
CN[C@@H](C)C(=O)N[C@H](C(=O)N1CCC[C@H]1C(=O)N[C@@H]1CCCc2ccccc21)C1CCCCC1 [A 410099.1]	0.0015 ± 0.0002 µM	–	–	0.017 ± 0.0024 µM	0.108 ± 0.0075 µM	1.23 ± 0.325 µM	0.0939 ± 0.0093 µM	–	0.0092 ± 0.001 µM	0.0199 ± 0.0026 µM	0.681 ± 0.068 µM	EC50 [11]: 0.333 ± 0.0354 µM; EC50 [12]: 0.0046 ± 0.0002 µM; EC50 [13]: 0.0004 ± 0.0002 µM; gain in potency on single BIR3 domain compared to full-length protein ([13]; NanoBRET, single BIR3 domain vs full-length): about 10 fold; ITC ΔG ([14]; 25°C): -10.04 kcal/mol; ITC ΔH ([14]; 25°C): -8.23 kcal/mol; Kd [14, 16]: 0.0375 ± 0.0061 µM; Kd ([14]; 25°C, exemplary titration, read-out: ITC KD (Figure 2E,F)): 0.0436 µM; ITC stoichiometry n ([14]; exemplary titration, Figure 2E,F): 1.074; IC50 ([15]; BIRC2 BIR3 domain, 5 nM probe, 30 nM protein, approximations, read-out: FP assay IC50 (estimated)): 0.0054 µM; Ki [15]: 0.002 ± 0.0011 µM
CN[C@@H](C)C(=O)N[C@H](C(=O)N1CCC[C@H]1C(=O)Nc1sc(-c2ncco2)nc1-c1ccccc1)C1CCCCC1 [CUDC-427]	0.02 ± 0.0031 µM	10.9 °C	10.9 °C	–	0.272 ± 0.0061 µM	10.1 ± 1.23 µM	0.218 ± 0.0483 µM	0.19 ± 0.0269 µM	0.739 ± 0.108 µM	–	14.8 ± 0.636 µM	Mean, ΔTm [°C] (Supplementary Table S1) [2]: 10.9 °C; ΔTm at 40 µM [2]: 10.8 ± 0.1 °C; EC50 [11]: 15.4 ± 8.97 µM; EC50 [12]: 0.622 ± 0.232 µM; EC50 [13]: 0.0544 ± 0.001 µM; Kd [14, 16]: 0.0447 ± 0.0118 µM; Ki [15]: 0.0029 ± 0.0003 µM
Oc1c(CN2CCCC2)cc(COCc2ccccc2)c2cccnc12 [UC-112]	–	0.4 °C	0.3 °C	–	–	–	–	–	–	–	–	EC50 ([1]; read-out: EC50 ± SEM NanoBRET BIRC3 BIR3, single domain, HEK293T, n = 4): > 50 µM; Mean, ΔTm [°C] (Supplementary Table S1) [2]: 0.3 °C; ΔTm [°C] (Supplementary Table S1) ([2]; third column): 0.2 °C; EC50 ([3]; read-out: EC50 ± SEM NanoBRET BIRC7 BIR, single domain, HEK293T, n = 4): > 50 µM; EC50 ([4]; read-out: EC50 ± SEM NanoBRET BIRC8 BIR, single domain, HEK293T, n = 4): > 50 µM; EC50 ([5]; read-out: EC50 ± SEM NanoBRET BIRC1 BIR[2], single domain, HEK293T, n = 4): > 50 µM; EC50 ([6]; read-out: EC50 ± SEM NanoBRET BIRC8, full-length, HEK293T, n = 4): > 50 µM; EC50 ([11]; read-out: EC50 ± SEM NanoBRET BIRC2 BIR2, single domain, HEK293T, n = 4): > 50 µM; EC50 ([12]; read-out: EC50 ± SEM NanoBRET BIRC2, full-length, HEK293T, n = 4): > 50 µM; EC50 ([7]; read-out: EC50 ± SEM NanoBRET BIRC4, full-length, HEK293T, n = 4): > 50 µM; EC50 ([8]; read-out: EC50 ± SEM NanoBRET BIRC3, full-length, HEK293T, n = 4): > 50 µM; EC50 ([13]; read-out: EC50 ± SEM NanoBRET BIRC2 BIR3, single domain, HEK293T, n = 4): > 50 µM; K D Measured in ITC ([14]; 25°C, duplicates, mean ± SD): no binding; EC50 ([9]; read-out: EC50 ± SEM NanoBRET BIRC7, full-length, HEK293T, n = 4): > 50 µM; EC50 ([10]; read-out: EC50 ± SEM NanoBRET BIRC3 BIR2, single domain, HEK293T, n = 4): > 50 µM; FP Assay K I Values ([15]; BIRC2 BIR3 domain, Cheng-Prusoff from IC50, mean ± SD, n = 3): binding could not be shown; also recorded: no interaction at all
CN[C@@H](C)C(=O)N[C@H](C(=O)N1CCC[C@H]1c1nc(C(=O)c2ccc(F)cc2)cs1)C1CCCCC1 [LCL161]	–	–	–	0.0285 ± 0.007 µM	0.258 ± 0.0424 µM	1.49 ± 0.297 µM	0.199 ± 0.0214 µM	–	–	0.0264 ± 0.0055 µM	–	–
